System: human prostate cancer cell lines—LNCaP cells
Test: In vitro mode adjunctive treatment activity assay with Taxol (MTT cell survival)
Format: cell-based
Conditions: 2 nM Taxol alone
Procedure: Utilize in vitro filter mode for human prostate cancer cell lines—LNCaP cells. Where human prostate cancer cell lines—LNCaP cells is being cultured in the culture medium which is supplemented by fetalbovine serum for 24 hours, and process cells by Taxol for 72 hours, and then change the culture medium so as to culture it in a new culture medium by adding assay sample for 72 hours, afterwards evaluate the cell survival rate by MIT colorimetric analysis method.
※ The assay analysis of the compositions in accordance with the present invention in effect for suppressing the growth of human prostate cancer cells, wherein it is necessary to compute the cell survival rate for cells in each well of 96-well microplate, afterwards evaluate the cancer cells survival rate by MIT colorimetric analysis method.
※ MTT colorimetric analysis method: MTT is a kind of tertrazolium salt, with a full name of 3-[4,5-Dimenthylthialzol-2-yl]2, 5-diphenyltetrazoliumbromide, which is the yellow dye, capable to be absorbed by live cells and also be reduced to blue color formazan by succinate-tetrazoliumreductase in mitochondrion, which is commonly used for filtering the affection for matters to the growth and proliferation of cells.

CC(=O)O[C@H]1C(=O)[C@@]2(C)[C@H]([C@H](OC(=O)c3ccccc3)[C@]3(O)C[C@H](OC(=O)[C@H](O)[C@@H](NC(=O)c4ccccc4)c4ccccc4)C(C)=C1C3(C)C)[C@]1(OC(C)=O)CO[C@@H]1C[C@@H]2O [Taxol]
cell survival rate for human prostate cancer cells: 56.4%

Source: patent US7749546B2, “Composition for effectively suppressing the growth of prostate cancer cell, suppressing the prostatic hyperplasia and its preparation method” (Golden Biotechnology Corp., priority 2004, dated 2010)
